In patent US5430036A, “6,11-substituted-6,11-dihydrobenzo[b]quinolizinium salts and compositions and method of use thereof” (Sterling Winthrop Inc., priority 1994, dated 1995):

Experiments:
PCP recognition sites [1] = assay: [3H]TCP radioreceptor assay (internal screen), binding to PCP recognition sites in rat whole brain membranes; parameters: species or system rat (male Sprague-Dawley); details: 25 min, room temperature; for Ki: approx. 1 nM [3H]TCP, mean of at least two separate determinations
Method: [^3 H]TCP binding to PCP recognition sites was performed as described by Vignon et al. Brain Research 1983, 280, 194-197. Male Sprague-Dawley rats were sacrificed by decapitation, and whole brains were homogenized in 10 volumes (wt/vol) of cold Tris-HCl buffer (50 mM, pH 7.7) using a Brinkmann Polytron (setting 6, 30 sec). The homogenate was centrifuged at 40,000×g for 10 min at 4° C. The supernatant was decanted, and the homogenization and centrifugation steps were repeated twice as described above. Following this, the pellet was resuspended in Tris-HCl (5 mM, pH 7.7) at a tissue concentration of 0.5-0.75 g/ml, and one ml aliquots were frozen at -70° C. until use. The binding characteristics for PCP recognition sites were not altered by the freezing of membrane suspensions.
On the day of the assay, membrane aliquots were thawed, resuspended in fresh 5 mM Tris-HCl buffer at a tissue concentration of 1 mg/ml, and stored on ice until use. Each assay tube contained 100 μl of [^3 H]TCP at a final concentration of approximately 1 nM, 100 μl of various concentrations of the compounds of interest, 500 μl of the tissue suspension and 300 μl of buffer to a final assay volume of 1 ml and a final protein concentration of 0.5 mg/tube. Non-specific binding was defined by addition of a final concentration of 100 μM PCP to blank tubes. All tubes were incubated at room temperature for 25 min before termination of the reaction by rapid filtration over Whatman GF/B glass fiber filters that had been presoaked in a solution of 0.5% polyethylenimine for at least 1 hr prior to use. Filters were washed with three 4 ml volumes of cold Tris buffer. Following addition of scintillation cocktail, the amount of bound radioactivity was determined by liquid scintillation spectrometry using a Beckman LS 5000TA liquid scintillation counter with an efficiency for tritium of approximately 55%. Inhibition constants (Ki values) were calculated using the EBDA/LIGAND program (McPherson, J. Pharmacol. Meth. 1985, 14, 213-228), purchased from Elsevier/Biosoft, Inc. Results are reported as Ki values which are expressed as the mean of at least two separate determinations; or as a percent (%) inhibition of binding at 10 μM.

PCP recognition sites [2] = assay: [3H]TCP radioreceptor assay (external screen), binding to PCP recognition sites in whole rat forebrain membranes; details: 25° C., 60 min
Method: A procedure similar to that described above, for the [^3 H]TCP radioreceptor assay (internal screen) was utilized except that the whole rat forebrain membranes were incubated at 25° C. for 60 minutes rather than at room temperature for 25 minutes, before termination of the reaction. The results are reported as a percent (%) inhibition of binding at 10 μM.

[3] = system: NMDA-induced neurotoxicity in cultured cortical neurons; assay: Antagonism of NMDA-induced neurotoxicity in cultured cortical neurons (LDH release); assay type: cell-based, mouse (Swiss-Webster); details: Mus musculus, Cortical neurone; 500 μM NMDA, 30 min exposure; LDH activity 24 h after removal of NMDA; day 13 cultured cortical neurons
Method: Pregnant, Swiss-Webster mice were obtained from Taconic Farms (Germantown, N.Y.) and sacrificed 16 days post conception. Fetuses were removed and placed in a sterile dish containing Hank's balanced salt solution (HBSS), pH 7.4. Brain cortices were dissected, meninges were removed, the tissue was minced and placed into a solution of HBSS containing 0.25% (w/v) trypsin at 37° C. for 15 minutes. Tissue was then triturated with a sterile pasteur pipet, diluted with minimal essential media (Gibco 330-1430), pH 7.4, supplemented with 10% horse serum, 10% fetal calf serum, 2 mM 1-glutamine, 21 mM d-glucose, 2.2 g/L sodium bicarbonate, 1000 U/ml penicillin, and 1,000 μg/ml streptomycin. Cells were plated onto Falcon primaria 96 well plates at a final density of 50,000 cells/well and incubated at 37° C. in the presence of 5% (v/v) carbon dioxide. After 5 days, plating media was replaced with maintenance media containing minimal essential media (Gibco 330-1430), pH 7.4, supplemented with 10% horse serum, 10% 1-glutamine, 21 mM d-glucose, 2.2 g/l sodium bicarbonate,1,000 U/ml penicillin, 1,000 μg/ml streptomycin, and 10 μM cytosine arabinoside. On days 7 and 10, media was replaced with maintenance media as above lacking the cytosine arabinoside. Experiments were conducted on day 13. […]

Q: How did the Ki (PCP recognition sites [1]) turn out when `Brc1ccc2c(c1)C1c3cccc[n+]3C2C2CC=CC12` (centres unmarked) [4(c), 9-bromo-6,11[3',4']cyclopentenyl-6,11-dihydrobenzo[b]quinolizinium bromide] was run?
A: Its Ki is 1630 nM.

Q: Which Ki (PCP recognition sites [1]) does the source give for `CC12c3ccccc3C(c3cccc[n+]31)C1C=CCC12` (centres unmarked) [12(c), 6-methyl-6,11[3',4']cyclopentenyl-6,11-dihydrobenzo[b]quinolizinium perchlorate, .1/2 H2 O] here?
A: The Ki was 93.4 nM.

Q: With `c1ccc2c(c1)C1c3cccc[n+]3C2C2CCCC12` (centres unmarked) [Example 13(a), 6,11[1',2']cyclopentyl-6,11-dihydrobenzo[b]quinolizinium perchlorate.1/2 hydrate] as the molecule, how does the Ki (PCP recognition sites [1]; hydrate) read?
A: The Ki was 1560 nM.

Q: How did the Ki (PCP recognition sites [1]) turn out when `c1ccc2c(c1)C1c3cccc[n+]3C2C2CCOC12` (centres unmarked) [Example 8, 6,11[2',3']tetrahydrofuranyl-6,11-dihydrobenzo[b]-quinolizinium bromide] was run?
A: The Ki was 8490 nM.

Q: `O=[N+]([O-])c1cccc2c1C1c3ccccc3C2c2cccc[n+]21` (centres unmarked) [15(b), 7-Nitro-6,11-benzeno-6,11-dihydrobenzo[b]quinolizinium perchlorate] was tested. Which “[3H]TCP (internal screen) Percent Inhibition @10 μM” value (PCP recognition sites [1]) did it give?
A: The value was 37%.

Q: What about the “[3H]TCP (external screen) Percent Inhibition (%) @10 μM” value (PCP recognition sites [2]) of the same molecule?
A: Its value is 9%.

Q: What does the source list for `C1=CC2C3c4ccccc4C(C2C1)[n+]1ccccc13` (centres unmarked) [15(a), 6,11-[3',4']cyclopentenyl-6,11-dihydrobenzo[b]quinolizinium bromide]?
A: Ki (PCP recognition sites [1]): 464 nM; [3H]TCP (external screen) Percent Inhibition (%) @10 μM (PCP recognition sites [2]): 92%

Q: `c1ccc2c(c1)C1c3cccc[n+]3C2C2CCCC12` (centres unmarked) [Example 13(b), 6,11[1',2']cyclopentyl-6,11-dihydrobenzo[b]quinolizinium perchlorate.1/2 hydrate] was tested. Which IC50 [3] did it give?
A: Its IC50 is 8400 nM.

Q: What about the Ki (PCP recognition sites [1]; hydrate) of the same molecule?
A: The Ki was 366 nM.

Q: `CC(C)=C1C=CC2C3c4ccccc4C(C12)[n+]1ccccc13` (centres unmarked) [14(b), 6,11-[5'-isopropylidene-[3',4']cyclopentenyl]-6,11-dihydrobenzo[b]quinolizinium perchlorate] was tested. Which Ki (PCP recognition sites [1]) did it give?
A: The Ki was 367 nM.

Q: Which “[3H]TCP (internal screen) Percent Inhibition @10 μM” value (PCP recognition sites [1]) does the source give for `Cc1cccc2c1C1c3ccccc3C2c2cccc[n+]21` (centres unmarked) [15(d), 7-Methyl-6,11-benzeno-6,11-dihydrobenzo[b]quinolizinium perchlorate] here?
A: The value was 52%.

Q: And the “[3H]TCP (external screen) Percent Inhibition (%) @10 μM” value (PCP recognition sites [2])?
A: Its value is 11%.

Q: What does the source list for `CC(C)(C)c1ccc(O)c2c1C1c3ccccc3C2[n+]2ccccc21` (centres unmarked) [15(c), 7-Hydroxy-10-tert-butyl-6,11-benzeno-6,11-dihydrobenzo[b]quinolizinium perchlorate]?
A: [3H]TCP (internal screen) Percent Inhibition @10 μM (PCP recognition sites [1]): 10%; [3H]TCP (external screen) Percent Inhibition (%) @10 μM (PCP recognition sites [2]): 24%

Q: For `Fc1ccc2c(c1)C1c3cccc[n+]3C2C2CC=CC12` (centres unmarked) [5(c), 9-fluoro-6,11[3',4']cyclopentenyl-6,11-dihydrobenzo-[b]quinolizinium perchlorate], which Ki (PCP recognition sites [1]) is on record?
A: Its Ki is 806 nM.

Q: Which Ki (PCP recognition sites [1]) does the source give for `C1=CC2C3c4ccccc4C(C2CC1)[n+]1ccccc13` (centres unmarked) [Example 1, 6,11[3',4']-cyclohexenyl-6,11-dihydrobenzo[b]quinolizinium bromide] here?
A: The Ki was 245 nM.
